This passage reports IC50 results from patent publication US20260176260A1, “DUAL RAF AND TUBULIN INHIBITORS AND METHODS OF USE THEREOF” (Deciphera Pharmaceuticals, LLC, priority 2023, published 2026).

Bounds are passed on as bounds.

For one test, the system named is HPAF-II cells. Kind of test: HPAF-II cell proliferation assay (resazurin). The note with it: Homo sapiens; Table 2, inhibition of cell proliferation; read-out: HPAF-II. The class given is cell-based. Here is the method: (§1) HPAF-II cells (catalog #CRL-1997) are obtained from the American Type Culture Collect (ATCC, Manassas, VA). Briefly, cells are grown in Minimum Essential Media supplemented with 10% characterized fetal bovine serum (Invitrogen, Carlsbad, CA) and 1% Penicillin/Streptomycin/L-Glutamine at 37° C., 5% CO2, and 95% humidity. Cells are expanded until reaching 70-95% confluency at which point they are sub-cultured or harvested for assay use. A serial dilution of test compound is dispensed into a 384-well black clear bottom plate in triplicate. 750 cells are added per well in 50 μL complete growth medium in the 384-well plate. Plates are incubated for 115 to 120 h at 37° C., 5% CO2, and 95% humidity. At the end of the incubation, 40 μL of a […] solution of resazurin (Sigma, St. Louis, MO) in PBS is added to each well of the plate and plates are incubated for an additional 18 to 24 h at 37° C., 5% CO2, and 95% humidity. Plates are read on a Synergy2 or equivalent reader (Biotek, Winooski, VT) using an excitation of 540 nm and an emission of 600 nm. Data is analyzed using Prism software (Graphpad, San Diego, CA) to calculate IC50 values.
Background: The colour change of resazurin is a common sign of viable cells or microbes.

In the next test the test system is MiaPaca-2 cells. Put plainly: MiaPaca-2 cell proliferation assay (resazurin). The class given is cell-based. The note with it: Homo sapiens, MIA PaCa-2; Table 2, inhibition of cell proliferation; read-out: MiaPaca-2. On the procedure:
MiaPaca-2 cells (catalog #CRL-1420) are obtained from the American Type Culture Collect (ATTC, Manassas, VA). Briefly, cells were grown in DMVEM supplemented with […] fetal bovine serum (Invitrogen, Carlsbad, CA), 2.5% New Zealand sourced horse serum and 1% Penicillin/Streptomycin/L-Glutamine at 37° C., […], and […]. Cells are expanded until reaching […] at which point they are sub-cultured or harvested for assay use. For assays completed in 96-well plates, a serial dilution of test compound is dispensed into a 96-well black clear bottom plate in triplicate. Three thousand cells are added per well in 200 μL complete growth medium in the 96-well plate. Plates are incubated for 67 to 72 h at 37° C., 5% CO2, and 95% humidity. At the end of the incubation, 40 μL of a […] solution of resazurin (Sigma, St. Louis, MO) in PBS is added to each well of the plate and plates are incubated for an additional 5 to 6 h at 37° C., 5% CO2, and 95% humidity. For 384-well assays, a threefold, 8-point serial dilution of compound was spotted column wise into a 384 well black, clear bottom, tissue culture treated plate using the Beckman Coulter Echo 650. Likewise, a threefold, 8-point serial dilution of cobimetinib was spotted row wise into the 384 well black, clear bottom plate containing compound. DMSO concentration was constant across all wells at 0.4%. Seven hundred fifty cells are added per well in 50 μL complete growth medium in each 384-well plate. Plates are incubated for 67 to 72 h at 37° C., 5% CO2, and 95% humidity. At the end of the incubation, 10 μL of a 440 μM solution of resazurin (Sigma, St. Louis, MO) in PBS is added to each well of the plate and plates are incubated for an additional 4 to 6 h at 37° C., 5% CO2, and 95% humidity. Plates are read on a Synergy2 or equivalent reader (Biotek, Winooski VT) using an excitation of 540 nm and an emission of 600 nm. Data is analyzed using Prism software (Graphpad, San Diego, CA) to calculate IC50 values.

The next test concerns Pa16c cells. Kind of test: Pa16c cell proliferation assay (resazurin). The class given is cell-based. The note with it: Table 2, inhibition of cell proliferation. On the procedure: as §1, with “Pa16c” for “HPAF-II”, “cells” for “cells (catalog #CRL-1997)”, “Dr. Channing Der, University of North Carolina at Chapel Hill.” for “the American Type Culture Collect (ATCC, Manassas, VA).”, “Dulbecco's Modified Eagle Medium” for “Minimum Essential Media”, “67” for “115”, “72” for “120”

The test system of the next test is HCT-116 cells. Put plainly: HCT-116 cell proliferation assay (resazurin). The note with it: Homo sapiens; Table 2, inhibition of cell proliferation; read-out: HCT-116. The class given is cell-based. Here is the method: HCT-116 cells (catalog #CCL-247) are obtained from the American Type Culture Collect (ATCC, Manassas, VA). Briefly, cells are grown in McCoy's 5A supplemented with 10% characterized fetal bovine serum (Invitrogen, Carlsbad, CA) and 1% Penicillin/Streptomycin/L-Glutamine at 37° C., 5% CO2, and 95% humidity. Cells are expanded until reaching 70-95% confluency at which point they are sub-cultured or harvested for assay use. A serial dilution of test compound is dispensed into a 384-well black clear bottom plate in triplicate. 375 cells are added per well in 50 μL complete growth medium in the 384-well plate. Plates are incubated for 67 to 72 h at 37° C., 5% CO2, and 95% humidity. At the end of the incubation, 40 μL of a […] solution of resazurin (Sigma, St. Louis, MO) in PBS is added to each well of the plate and plates are incubated for an additional 4 to 5 h at 37° C., 5% CO2, and 95% humidity. Plates are read on a Synergy2 or equivalent reader (Biotek, Winooski, VT) using an excitation of 540 nm and an emission of 600 nm. Data is analyzed using Prism software (Graphpad, San Diego, CA) to calculate IC50 values.

Another test has as its target T1, B-Raf kinase (Homo sapiens, UniProt P15056).
T1 construct: purchased Sigma
Kind of test: Biochemical assay for B-Raf (coupled pyruvate kinase/lactate dehydrogenase). Particulars: Table 1, inhibition of biochemical activity; read-out: BRAF.

The target in the next test is T2, C-Raf kinase (Homo sapiens, UniProt P04049, Y340D/Y341D).
T2 construct: C-Raf residues 306-end; Y340D, Y341D with N-; purchased Sigma
Put plainly: Biochemical assay for C-Raf (coupled pyruvate kinase/lactate dehydrogenase). Particulars: Table 1, inhibition of biochemical activity; read-out: CRAF.

T1 sequence (P15056 416-766): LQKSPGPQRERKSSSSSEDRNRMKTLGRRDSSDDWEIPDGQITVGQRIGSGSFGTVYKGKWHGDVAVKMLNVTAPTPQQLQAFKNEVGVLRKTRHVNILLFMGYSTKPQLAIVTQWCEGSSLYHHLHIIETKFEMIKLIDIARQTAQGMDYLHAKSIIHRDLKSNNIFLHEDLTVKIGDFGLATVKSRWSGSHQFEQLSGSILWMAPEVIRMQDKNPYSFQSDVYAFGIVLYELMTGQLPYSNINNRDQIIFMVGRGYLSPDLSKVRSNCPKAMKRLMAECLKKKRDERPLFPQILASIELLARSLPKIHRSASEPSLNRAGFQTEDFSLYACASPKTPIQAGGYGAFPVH
T2 sequence (P04049 307-648 Y340D/Y341D): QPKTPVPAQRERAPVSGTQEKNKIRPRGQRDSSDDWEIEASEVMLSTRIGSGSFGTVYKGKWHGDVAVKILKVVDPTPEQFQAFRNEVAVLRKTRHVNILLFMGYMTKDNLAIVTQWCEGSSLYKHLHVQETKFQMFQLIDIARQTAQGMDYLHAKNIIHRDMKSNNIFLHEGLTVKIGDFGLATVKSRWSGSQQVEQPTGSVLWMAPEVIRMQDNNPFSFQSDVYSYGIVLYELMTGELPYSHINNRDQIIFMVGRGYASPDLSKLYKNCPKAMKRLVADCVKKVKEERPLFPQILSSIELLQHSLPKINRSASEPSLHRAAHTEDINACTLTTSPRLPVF

For the compound `CNC(=O)c1cc(-c2cncc(-c3cc(NC(=O)c4cc(C(F)(F)F)cnn4)ccc3C)c2)ncn1` [Example 17], the IC50 in the test with HPAF-II cells lay within 1000 to 10000 nM; in the test on MiaPaca-2 cells, 1000 to 10000 nM; with Pa16c cells it was 1000 to 10000 nM; in the test on HCT-116 cells, 1000 to 10000 nM; at B-Raf kinase it was 100 to 500 nM; at C-Raf kinase, 100 to 500 nM.
Consider `CNC(=O)c1cc(-c2cc(-c3cc(NC(=O)c4cc(C(F)(F)F)cnn4)ccc3C)nc(NCCO)n2)ccn1` [Example 19], for which the IC50 in the test with HPAF-II cells is 100 to 500 nM; in the test with MiaPaca-2 cells, 100 to 500 nM; in the test on Pa16c cells it was 500 to 1000 nM; in the test on HCT-116 cells, 100 to 500 nM; at B-Raf kinase, less than 100 nM; at C-Raf kinase it was less than 100 nM.
Regarding `CNC(=O)c1cc(-c2cc(-c3cc(NC(=N)c4cc(C(F)(F)F)cnn4)ccc3C)ccn2)ccn1` [Example 20], the IC50 is 1000 to 10000 nM in the test with HPAF-II cells; 1000 to 10000 nM with MiaPaca-2 cells; 1000 to 10000 nM in the test on Pa16c cells; 1000 to 10000 nM in the test on HCT-116 cells; 500 to 1000 nM on B-Raf kinase; 100 to 500 nM on C-Raf kinase.
As for `CNC(=O)c1cc(-c2cc(-c3cc(NC(=N)c4cc(C5CC5)cnn4)ccc3C)ccn2)ccn1` [Example 21], the IC50 with HPAF-II cells fell in the range of 1000 to 10000 nM; in the test on MiaPaca-2 cells, 1000 to 10000 nM; in the test on Pa16c cells, 1000 to 10000 nM; in the test with HCT-116 cells, 1000 to 10000 nM; on B-Raf kinase, 500 to 1000 nM; on C-Raf kinase, 100 to 500 nM.
As to `CNC(=O)c1cc(-c2nc(NCCO)cc(-c3cc(NC(=O)c4cc(C5CC5)cnn4)ccc3C)n2)ccn1` [Example 22], the IC50 with HPAF-II cells is 1000 to 10000 nM; in the test on MiaPaca-2 cells, 1000 to 10000 nM; with Pa16c cells it was 1000 to 10000 nM; in the test with HCT-116 cells, 1000 to 10000 nM; on B-Raf kinase it was less than 100 nM; at C-Raf kinase, less than 100 nM.
As to `CNC(=O)c1cc(-c2nc(NCCO)cc(-c3cc(NC(=O)c4cc(C(F)(F)F)cnn4)ccc3C)n2)ccn1` [Example 23], the IC50 was 1000 to 10000 nM with HPAF-II cells; 1000 to 10000 nM with MiaPaca-2 cells; 1000 to 10000 nM in the test on Pa16c cells; 500 to 1000 nM in the test on HCT-116 cells; less than 100 nM on B-Raf kinase; less than 100 nM on C-Raf kinase.
With `CNC(=O)c1cc(-c2cncc(-c3cc(NC(=O)c4cc(C5CC5)cnn4)ccc3C)c2)ncn1` [Example 24], the IC50 with HPAF-II cells is 1000 to 10000 nM; in the test on MiaPaca-2 cells it was 1000 to 10000 nM; in the test with Pa16c cells it was 1000 to 10000 nM; in the test with HCT-116 cells, 1000 to 10000 nM; at B-Raf kinase, less than 100 nM; on C-Raf kinase, less than 100 nM.
As for `CNC(=O)c1cc(-c2cc(-c3cc(NC(=O)c4cc(C(F)(F)F)cnn4)ccc3C)nc(N[C@H](C)CO)n2)ccn1` [Example 25], the IC50 is 100 to 500 nM in the test with HPAF-II cells; 100 to 500 nM with MiaPaca-2 cells; 1000 to 10000 nM in the test with Pa16c cells; 100 to 500 nM in the test on HCT-116 cells; less than 100 nM at B-Raf kinase; less than 100 nM at C-Raf kinase.
Turning to `CNC(=O)c1cc(-c2nc(N[C@H](C)CO)cc(-c3cc(NC(=O)c4cc(C(F)(F)F)cnn4)ccc3C)n2)ccn1` [Example 28], the IC50 with HPAF-II cells was 1000 to 10000 nM; in the test on MiaPaca-2 cells, 1000 to 10000 nM; with Pa16c cells, 1000 to 10000 nM; in the test with HCT-116 cells, 1000 to 10000 nM; on B-Raf kinase it was less than 100 nM; at C-Raf kinase, less than 100 nM.
For `CNC(=O)c1cc(-c2cc(-c3cc(NC(=O)c4cc(C(F)(F)F)cnn4)ccc3C)cc(N[C@H](C)CO)n2)ccn1` [Example 29], the IC50 is 100 to 500 nM in the test on HPAF-II cells; 100 to 500 nM in the test on MiaPaca-2 cells; 100 to 500 nM with Pa16c cells; less than 100 nM with HCT-116 cells; less than 100 nM on B-Raf kinase; less than 100 nM at C-Raf kinase.
On to `CNC(=O)c1cc(-c2cncc(-c3cc(NC(=O)c4cc(C(C)(F)F)cnn4)ccc3C)c2)ccn1` [Example 30], for which the IC50 in the test on HPAF-II cells was 1000 to 10000 nM; with MiaPaca-2 cells it was 1000 to 10000 nM; in the test on Pa16c cells, 1000 to 10000 nM; in the test with HCT-116 cells it was 500 to 1000 nM; at B-Raf kinase, less than 100 nM; on C-Raf kinase, less than 100 nM.
As for `CNC(=O)c1cc(-c2cc(-c3cc(NC(=O)c4cc(C(C)(F)F)cnn4)ccc3C)ccn2)ccn1` [Example 31], the IC50 is 100 to 500 nM with HPAF-II cells; 100 to 500 nM in the test on MiaPaca-2 cells; 100 to 500 nM with Pa16c cells; 100 to 500 nM with HCT-116 cells; less than 100 nM on B-Raf kinase; less than 100 nM at C-Raf kinase.
With `CNC(=O)c1cc(-c2cc(-c3cc(NC(=O)c4cc(C5CC5)cnn4)ccc3C)cc(N[C@H](C)CO)n2)ccn1` [Example 32], the IC50 was 100 to 500 nM in the test on HPAF-II cells; 100 to 500 nM in the test with MiaPaca-2 cells; 100 to 500 nM in the test on Pa16c cells; 100 to 500 nM in the test with HCT-116 cells; less than 100 nM on B-Raf kinase; less than 100 nM at C-Raf kinase.
Turning to `CNC(=O)c1cc(-c2cc(NCCO)nc(-c3cc(NC(=O)c4cc(C(F)(F)F)cnn4)ccc3C)n2)ccn1` [Example 33], the IC50 with HPAF-II cells is 1000 to 10000 nM; with MiaPaca-2 cells, 1000 to 10000 nM; in the test with Pa16c cells, 1000 to 10000 nM; with HCT-116 cells it was 1000 to 10000 nM; on B-Raf kinase, 100 to 500 nM; on C-Raf kinase it was less than 100 nM.
Regarding `CNC(=O)c1cc(-c2cc(-c3cc(NC(=O)c4cc(C5CC5)cnn4)ccc3C)cc(OCCO)n2)ccn1` [Example 34], the IC50 in the test on HPAF-II cells is 500 to 1000 nM; with MiaPaca-2 cells, 500 to 1000 nM; in the test with Pa16c cells, 100 to 500 nM; in the test with HCT-116 cells it was 100 to 500 nM; on B-Raf kinase it was less than 100 nM; at C-Raf kinase, less than 100 nM.
As for `CNC(=O)c1cc(-c2cc(-c3cc(NC(=O)c4cc(C(F)(F)F)cnn4)ccc3C)cc(OCCO)n2)ccn1` [Example 35], the IC50 in the test with HPAF-II cells is 100 to 500 nM; with MiaPaca-2 cells, 100 to 500 nM; in the test on Pa16c cells, 100 to 500 nM; in the test on HCT-116 cells it was 100 to 500 nM; at B-Raf kinase, less than 100 nM; on C-Raf kinase it was less than 100 nM.
